Laboratory results: paper PMC11579929, “Proline-Modified RWn Peptides: Enhanced Antifungal Efficacy and Synergy with Conventional Antibiotics for Combating Resistant Fungal Infections” (ACS Omega, 2024)
≈ marks a conversion by molar mass, not a printed value. Read-outs that look alike come from different tables or passages of the source. Where no end group is shown, it is not given here.

Tests used:
[1] = tested on: C. neoformans [ATCC 208821]; test: microbe, parasite or virus in culture; type: cell-based, Cryptococcus neoformans; details: for MIC: Cryptococcus neoformans
C. albicans [ATCC 90028] = test: microbe, parasite or virus in culture; type: cell-based, Candida albicans; details: for MIC: Candida albicans
Cytotoxicity assay = type: cell-based; details: human, HEK293 cells
Description: (§1) The antifungal activities were evaluated by determining the minimum inhibitory concentration (MIC) against C. albicans [ATCC 90028] and C. neoformans [ATCC 208821] that inhibits 99% fungal growth. Cytotoxicity and hemolytic activities were assessed against human embryonic kidney (HEK293) cells and human red blood cells, respectively. The antimicrobial screening was performed by The Community for Antimicrobial Drug Discovery (CO-ADD).[31] Cytotoxicity assays were performed on active compounds to assess their selectivity toward microbial cells. The protocol for the cytotoxicity assay is described in the Supporting Information.[28]

human red blood cells = test: Hemolytic activity; type: cell-based; details: for Hemolytic Toxicity (<32 mg/mL): yes/no below as printed
Description: as §1, with “(CO-ADD).[31]” for “(CO-ADD).[31] Cytotoxicity assays were performed on active compounds to assess their selectivity toward microbial cells. The protocol for the cytotoxicity assay is described in the Supporting Information.[28]”

HEK293 and RBC = test: Toxicity (HEK293 and RBC), stated jointly; type: cell-based, human
Description: as §1

| Compound | C. albicans MIC (C. albicans [ATCC 90028]; ATCC 90028, 3 h) | Hemolytic Activity (human red blood cells; Table 2, human red blood cells) | Hemolytic Toxicity (<32 mg/mL) (human red blood cells) | CC50 (Cytotoxicity assay) | Hemolytic Activity (human red blood cells; Table 3, unit not given) | other results |
| --- | --- | --- | --- | --- | --- | --- |
| CC1(C)S[C@@H]2[C@H](NC(=O)[C@H](N)c3ccccc3)C(=O)N2[C@H]1C(=O)O [AMP, ampicillin, reference compound] |  |  |  |  |  | MIC ([1]; ATCC208821, antibiotic alone or 4.75 mg antibiotic mixed with 0.25 mg of peptide, read-out: C. neoformans MIC): > 32 µg/mL; MIC (C. albicans [ATCC 90028]; ATCC90028, antibiotic alone or 4.75 mg antibiotic mixed with 0.25 mg of peptide, read-out: C. albicans MIC): > 32 µg/mL |
| OC(Cn1cncn1)(Cn1cncn1)c1ccc(F)cc1F [Fluconazole, reference compound] |  |  |  |  |  | MIC ([1]; ATCC208821, BMD method, YNB, 384 NBS plates, average of ≥ 6 independent biological replicates, antifungal standard, read-out: MIC Cryptococcus neoformans H99 ATCC 208821): 8 µg/mL (≈ 26.1 µM); MIC (C. albicans [ATCC 90028]; ATCC90028, BMD method, YNB, 384 NBS plates, average of ≥ 6 independent biological replicates, antifungal standard, read-out: MIC Candida albicans ATCC 90028): 0.125 µg/mL (≈ 0.408 µM) |
| CC[C@H](C)[C@H](N)C(=O)N[C@@H](CC(C)C)C(=O)N1CCC[C@H]1C(=O)N[C@@H](Cc1c[nH]c2ccccc12)C(=O)N[C@@H](CCCCN)C(=O)N[C@@H](Cc1c[nH]c2ccccc12)C(=O)N1CCC[C@H]1C(=O)N[C@@H](Cc1c[nH]c2ccccc12)C(=O)N[C@@H](Cc1c[nH]c2ccccc12)C(=O)N1CCC[C@H]1C(=O)N[C@@H](Cc1c[nH]c2ccccc12)C(=O)N[C@@H](CCCNC(=N)N)C(=O)N[C@@H](CCCNC(=N)N)C(N)=O [Indolicidin, reference compound] |  | >32 µg/mL | No |  |  | C. neoformans MIC ([1]; ATCC 208821, concentration that inhibits 99% fungal growth, peptide alone): >32 µg/mL; CC50 (Cytotoxicity assay; Table 2, read-out: HEK293 Toxicity): > 32 µg/mL; C. albicans MIC (C. albicans [ATCC 90028]; ATCC 90028, concentration that inhibits 99% fungal growth, peptide alone): >32 µg/mL |
| CN[C@H](CC(C)C)C(=O)N[C@H]1C(=O)N[C@@H](CC(N)=O)C(=O)N[C@H]2C(=O)N[C@H]3C(=O)N[C@H](C(=O)N[C@H](C(=O)O)c4cc(O)cc(O)c4-c4cc3ccc4O)[C@H](O)c3ccc(c(Cl)c3)Oc3cc2cc(c3O[C@@H]2O[C@H](CO)[C@@H](O)[C@H](O)[C@H]2O[C@H]2C[C@](C)(N)[C@H](O)[C@H](C)O2)Oc2ccc(cc2Cl)[C@H]1O [VAN, vancomycin, reference compound] |  |  |  |  |  | MIC ([1]; ATCC208821, read-out: C. neoformans MIC): > 32 µg/mL; MIC (C. albicans [ATCC 90028]; ATCC90028, read-out: C. albicans MIC): > 32 µg/mL |
| RWRWPRWRW-NH2 [RW4P] | >32 µg/mL |  |  | > 32 µg/mL | >32 | C. neoformans MIC ([1]; ATCC 208821, 3 h): ≤0.25 µg/mL |
| RWRWPRWRWPRWRW-NH2 [RW6–2P] |  |  |  | > 32 µg/mL | >32 | Toxicity in HEK293 or red blood cells (in words) (HEK293 and RBC): without any detectable toxicity |
| RWRWRWPRWRWRW-NH2 [RW6P] |  |  |  | > 32 µg/mL | >32 | Toxicity in HEK293 or red blood cells (in words) (HEK293 and RBC): without observable toxicity |
| RWRWRWRW-NH2 [RW4, (RW)4-NH2] |  | >32 µg/mL | No | > 32 µg/mL |  |  |
| RWRWRWRWPRWRWRWRW-NH2 [RW8P] | >32 µg/mL |  |  | > 32 µg/mL | >32 | C. neoformans MIC ([1]; ATCC 208821, 3 h): ≤0.25 µg/mL |

More lines, main results first:

| C. albicans MIC (C. albicans [ATCC 90028]; ATCC 90028, 3 h) | Compound | Hemolytic Activity (human red blood cells; Table 2, human red blood cells) | Hemolytic Toxicity (<32 mg/mL) (human red blood cells) | CC50 (Cytotoxicity assay) | Hemolytic Activity (human red blood cells; Table 3, unit not given) | other results |
| --- | --- | --- | --- | --- | --- | --- |
| 8 µg/mL | N=C(N)NCCC[C@H](NC(=O)[C@H](Cc1c[nH]c2ccccc12)NC(=O)[C@H](CCCNC(=N)N)NC(=O)[C@H](Cc1c[nH]c2ccccc12)NC(=O)[C@H](CCCNC(=N)N)NC(=O)[C@H](Cc1c[nH]c2ccccc12)NC(=O)[C@H](CCCNC(=N)N)NC(=O)[C@H](Cc1c[nH]c2ccccc12)NC(=O)[C@H](CCCNC(=N)N)NC(=O)[C@H](Cc1c[nH]c2ccccc12)NC(=O)[C@@H](N)CCCNC(=N)N)C(=O)N[C@@H](Cc1c[nH]c2ccccc12)C(N)=O [RW6, (RW)6-NH2] | ≤0.25 µg/mL | Yes | > 32 µg/mL |  |  |
| 32 µg/mL | RWRWRWRWRWRWRWRW-NH2 [RW8, (RW)8-NH2] | 0.452 µg/mL | Yes | > 32 µg/mL |  | C. neoformans MIC ([1]; ATCC 208821, 3 h): 0.5 µg/mL |
